According to patent publication US20260248799A1, “COMBINATIONS OF RETINALDEHYDE DEHYDROGENASE 1 (RALDH1) INHIBITORS AND IMMUNOSTIMULATORS AND METHODS USING SAME” (The Trustees of the University of Pennsylvania, priority 2023, published 2026):

Assays:
[1] = system: macrophages from primary human monocytes; test: Numbers of live monocyte-derived macrophages in vitro; type: cell-based; conditions: C86 treated TCM or BMS493; three days
Method: (§1) FIGS. 24A-24E: Raldh1-INH blocks tumor supportive functions of monocytes and macrophages. FIG. 24A: Circulating primary human monocytes were collected from donors and cultured with MCSF (50 ng/mL) to generate macrophages. On day 3 of these cultures, DMSO or RA (100 nmol/L) was added to generate control monocyte-derived macrophages (Control-MoDM) or RA monocyte-derived macrophages (RA-MoDM), respectively. On day 7 of these cultures, macrophages were collected for each well after washing with 1×PBS, mixed with Huh7 cells at approximately 50:50 ratio, and the mix injected into the flanks of NU/J mice. Huh7 tumors cells that were not mixed with any macrophages before flank injection served as an additional control. Tumor volume was measured every 2 days (left graph). 19 days after tumor injection, mice were sacrificed and tumor weight (right graph) was measured. […] Three or more independent experiments were performed with at least three replicates per experimental group. Unpaired t test, two-tailed. […] Tumor growth was monitored daily (left graph). 13 days after tumor cell transplantation, mice were sacrificed and tumor weight measured (right graph). […] Three days later, cells were harvested, counted, and stained with PI for FCS analyses. […] Cell proliferation was measured by counting live cell numbers (y-axis). […] 72 hours later, the cells were washed, counted, and analyzed by FCS. […]

human HCC lines = test: Human HCC lines cocultured with pretreated macrophages; type: cell-based; conditions: macrophages exposed to BMS493
Method: as §1

Huh7 tumors = Huh7 tumors in NU/J mice; type: in vivo, mouse; conditions: Huh7
Method: FIGS. 26A-26H: Raldh1-INH suppresses HCC growth by altering macrophage functions. FIG. 26A: Huh7 tumor-bearing NU/J mice were treated with C86 (i.p, 10 mg/kg) every day starting when tumor size was approximately 50 mm^3. Tumor volume was measured every 2 days. […] Three or more independent experiments were performed with at least three replicates per experimental group. Unpaired t test, two-tailed. FIG. 26B: AldeRed assay at endpoint on Huh7 tumor treated as described in FIG. 26A. […] Three or more independent experiments were performed with at least three replicates per experimental group. Unpaired t test, two-tailed. FIG. 26C: Huh7 tumor-bearing nude mice were treated with different dose of C86 every day. Tumor volume was measured every 2-3 days. […] Two independent experiments were performed with at least three replicates per experimental group. Unpaired t test, two-tailed. FIG. 26D: Body weight measured every 3-5 days for the experiment outlined in FIG. 26C. FIG. 26E: Parental Huh7 or RALDH1-KO Huh7 cells were implanted subcutaneously into NU/J mice and treated with C86 (i.p, 10 mg/kg) or vehicle (control) every day. […] Three or more independent experiments were performed with at least three replicates per experimental group. Unpaired t test, two-tailed. FIG. 26F: Huh7 tumor-bearing NU/J mice were treated with clodronate liposomes (CloLipo) and/or C86. […] Two independent experiments were performed with at least three replicates per experimental group. Unpaired t test, two-tailed. FIG. 26G: Murine Hepa 1-6 tumors were implanted subcutaneously into C57BL6/J WT mice or LyMCre:RosadnRAR mice. Expression of the dominant negative RAR in myeloid cells slows tumor growth. Two independent experiments were performed with at least three replicates per experimental group. Unpaired t test, two-tailed. FIG. 26H: Huh7 cells were implanted subcutaneously into NU/J mice. When tumor size reached about 50 mm^3, mice were intraperitoneally injected vehicle (control) or C86 daily with or without BMS493 treatment intratumorally every 3 days. BMS493 and C86 suppress tumor growth with the combination showing higher suppression than monotherapy. *, P<0.05; **, P<0.01; ***, P<0.001; n.s., not significant.
Cultured Huh7, Huh1, Hepa 1-6, Hep55, and FS (as indicated in figure legends) tumor cells were detached using 0.25% trypsin (Gibco, catalog #25200056), washed once with 1×PBS, and counted before implantation. 3~6×10^6 tumor cells were implanted subcutaneously (s.c.) into shaved flanks of recipient mice. Tumor dimensions were measured using a caliper starting at the day indicated in the accompanying figure legend and every two to three days thereafter; volume was calculated by using formula Length*Width^2/2. Tumor volumes of 2,000 mm^3, tumor length of 2 cm or tumor ulceration were used as endpoints for survival analyses.
Compound-86, 97 and 99 powder was dissolved in 20% HPβCD saline (2-Hydroxypropyl)-[…]). Drug was administered i.p. or p.o. starting when tumor volume reached 50-150 mm^3 and repeated every day.

SNU398 human HCC cells = test: AldeRed (Aldefluor) assay in SNU398 cells; type: cell-based
Method: The AldeRed assay (EMD Millipore) was performed according to manufacturer's instructions to identify cells with ALDH activity. In brief, single-cell suspensions of Huh7, Huh1, SNU449, SNU398, HEP3B, PLC, Hepa 1-6, Hep55, and AL458A cultured cells or single-cell suspension generated from enzymatic digestion of tumors generated from transplantation of these cells in mice (as indicated in figure legends) were incubated with a fluorescent and non-toxic ALDH substrate (AldeRed 588-A); the fluorescent product accumulates in cells proportional to their ALDH activity. The amount of fluorescence produced is measured by flow cytometry. The ALDH inhibitor diethylaminobenzaldehyde (DEAB, provided with the AldeRed assay kit) was used as a negative control for background fluorescence assessment.
(§2) The Aldefluor assay has been used to identify and isolate cells with high ALDH activities. This assay is based on the principle that ALDH can convert the ALDH-substrate, Bodipy-aminoacetaldehyde (BAAA) into Bodipy-aminoacetate (BAA) which is retained inside the cells. BAAA is uncharged and can diffuse freely into intact viable cells, however BAA cannot cross the membrane due to its net negative charge, which makes remain in the cells and the assay buffer prevents efflux of the BAA from the cells. Therefore, the amount of BAA fluorescence in cells is proportional to ALDH activity and can be measured using a flow cytometer. A specific inhibitor of ALDH, diethylaminobenzaldehyde (DEAB), is used for background fluorescence control.

hALDHIA1 = biological target: T1, hALDHIA1 (Homo sapiens, UniProt P00352); test: hALDH1A1 inhibition (Table 4); type: biochemical
T1 sequence (P00352 1-501): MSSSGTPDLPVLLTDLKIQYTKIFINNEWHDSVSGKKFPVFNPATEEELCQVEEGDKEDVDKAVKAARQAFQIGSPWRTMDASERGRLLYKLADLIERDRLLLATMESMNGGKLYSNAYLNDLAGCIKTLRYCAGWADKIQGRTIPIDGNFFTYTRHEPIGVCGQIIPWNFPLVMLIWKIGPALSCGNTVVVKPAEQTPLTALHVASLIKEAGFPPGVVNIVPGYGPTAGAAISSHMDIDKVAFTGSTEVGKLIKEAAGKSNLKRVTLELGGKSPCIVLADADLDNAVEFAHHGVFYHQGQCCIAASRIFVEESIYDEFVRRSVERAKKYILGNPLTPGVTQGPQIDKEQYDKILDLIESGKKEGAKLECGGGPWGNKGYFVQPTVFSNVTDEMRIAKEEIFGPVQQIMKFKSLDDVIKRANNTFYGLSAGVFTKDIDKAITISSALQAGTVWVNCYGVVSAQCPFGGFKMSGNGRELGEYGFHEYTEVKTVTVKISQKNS
Method: (§3) Compounds ALDH inhibitory effects of C-9125, C-9163, and C-9175 were evaluated in a number of cell lines, including MiaPaCa2 and OV90 cell lines, utilizing the AldeFlour assay described elsewhere herein (Table 4).

MiaPaCa2 cells = test: AldeFlour assay in MiaPaCa2 cells; type: cell-based; conditions: Homo sapiens, MIA PaCa-2, read-out: MiaPaCa cells IC50
Text: as §2, §3

[2] = system: Hepa1-6 (mouse HCC cell line); test: LC-MS for ATRA in Hepa1-6 cells; conditions: 1,000 nmol/L, 24 hours
[3] = system: SNU398 (human HCC cell line); test: LC-MS for ATRA in SNU398 cells; conditions: C86 100 nmol/L, WIN18446 1,000 nmol/L, 24 hours

For `CC1(C)CC=C(C#Cc2ccccc2)c2cc(/C=C/c3ccc(C(=O)O)cc3)ccc21` [BMS 493, (E)-4-(2-(5,5-dimethyl-8-(phenylethynyl)-5,6-dihydronaphthalen-2-yl)vinyl)benzoic acid, reference compound], the “RA and tumor-CM induced increase in macrophage numbers” value [1] was “reversed”, the “increase of tumor cell numbers by RA pre-treated macrophages” value (human HCC lines) was “this effect was reversed” and the “tumor mass and volume” value (Huh7 tumors; intraperitoneal administration, compared to a control (FIGS. 12B-12C)) was “significant reduction in tumor mass and volume”.
With `N#CC1(c2ccccc2)CCN(c2c(C(=O)N[C@H]3CC[C@H](O)CC3)cnc3ccc(F)cc23)CC1` [Compound C-97, 4-(4-cyano-4-phenylpiperidin-1-yl)-6-fluoro-N-((1r,4r)-4-hydroxycyclohexyl)quinoline-3-carboxamide] the “ALDH activity compared to the DMSO control” value (SNU398 human HCC cells; SNU398, 1 nM) was “partial inhibition”, the “concentration giving essentially complete inhibition of ALDH” value (SNU398 human HCC cells; SNU398, Aldefluor assay) was at least 10 nM and the “tumor mass and volume” value (Huh7 tumors; C-86 versus C-97 (FIGS. 17A-17B)) was “significant reduction in tumor mass and volume”. The “tumor suppressive activity relative to C-86” value (Huh7 tumors; FIGS. 17A-17B) was “enhanced tumor suppressive activity as compared to C-86”.
`N#CC1(c2ccc(-c3c(C(=O)N[C@H]4CC[C@H](O)CC4)cnc4ccc(F)cc34)cc2)CC1` [Compound C-9125, 4-(4-(1-cyanocyclopropyl)phenyl)-6-fluoro-N-((1r,4r)-4-hydroxycyclohexyl)quinoline-3-carboxamide] was tested, and the IC50 (hALDHIA1) was 7 nM and the IC50 (MiaPaCa2 cells) was 130 nM.
`N#CC1(c2ccc(-c3c(C(=O)Nc4cnn(CCO)c4)cnc4ccc(F)cc34)cc2)CC1` [Compound C-9163, 4-(4-(1-cyanocyclopropyl)phenyl)-6-fluoro-N-(1-(2-hydroxyethyl)-1H-pyrazol-4-yl)quinoline-3-carboxamide] gave an IC50 (hALDHIA1) of 4 nM and an IC50 (MiaPaCa2 cells) of 93 nM.
`N#CC1(c2ccccc2)CCN(c2c(C(=O)Nc3cnn(CCO)c3)cnc3ccc(F)cc23)CC1` [Compound C-9175, 4-(4-cyano-4-phenylpiperidin-1-yl)-6-fluoro-N-(1-(2-hydroxyethyl)-1H-pyrazol-4-yl)quinoline-3-carboxamide] gave an IC50 (hALDHIA1) of 6 nM and an IC50 (MiaPaCa2 cells) of 12 nM.
With `O=C(NCCCCCCCCNC(=O)C(Cl)Cl)C(Cl)Cl` [WIN18446] the “ATRA by LC-MS (RALDH1 inhibition)” value [2] was “inhibits both murine and human RALDH1” and the “ATRA by LC-MS (RALDH1 inhibition)” value [3] was “inhibits both murine and human RALDH1”.
